Earlier results, collected in patent publication US20090227666A1, “Enhancing Disease Resistance In An Animal” (Hill's Pet Nutrition, Inc., priority 2007, published 2009).

System: CD8+ T cell population
Settings: moderate (101 mg/kg of food) or high (447 mg/kg of food) versus low-normal (17 mg/kg of food)

For CC(=O)Oc1c(C)c(C)c2c(c1C)CCC(C)(CCC[C@H](C)CCC[C@H](C)CCCC(C)C)O2 (stereo partly drawn) [α-tocopheryl acetate], the “percentages of CD8+ cells” value is listed as “increased percentages of CD8+ cells”.
